Test results: ChEMBL document CHEMBL3046333, “Synthesis and bioevaluation of novel analogues of justicidin A” (Med Chem Res, 2010)
pIC50: −log10 of the molar value.

Each compound was assayed on HepG2 (assay: Cytotoxicity against Homo sapiens (human) HepG2 cells after 3 days by MTT assay). Conditions: HepG2, 72 h.
Type: functional, cell-based
With `COc1cc2c(OCCCCCBr)c3c(c(-c4ccc5c(c4)OCO5)c2cc1OC)C(=O)OC3` the pIC50 was 3.68.
`CCCOc1c2c(c(-c3ccc4c(c3)OCO4)c3cc(OC)c(OC)cc13)C(=O)OC2` showed a pIC50 of 3.82.
With `COc1cc2c(OCCBr)c3c(c(-c4ccc5c(c4)OCO5)c2cc1OC)C(=O)OC3` the pIC50 was 3.58.
`CCCCOc1c2c(c(-c3ccc4c(c3)OCO4)c3cc(OC)c(OC)cc13)C(=O)OC2` gave a pIC50 of 3.90.
Compound `COc1cc2c(OCCCCCCBr)c3c(c(-c4ccc5c(c4)OCO5)c2cc1OC)C(=O)OC3` has a pIC50 of 3.78.
For `COc1cc2c(OC)c3c(c(-c4ccc5c(c4)OCO5)c2cc1OC)C(=O)OC3` [JUSTICIDIN A], the pIC50 was 3.79.
Work on `COc1cc([C@@H]2c3cc4c(cc3[C@@H](O[C@@H]3O[C@@H]5CO[C@@H](C)O[C@H]5[C@H](O)[C@H]3O)[C@H]3COC(=O)[C@H]23)OCO4)cc(OC)c1O` [ETOPOSIDE] yielded a pIC50 of 3.37.
Work on `COc1cc2c(OCCCCBr)c3c(c(-c4ccc5c(c4)OCO5)c2cc1OC)C(=O)OC3` yielded a pIC50 of 3.81.
`COc1cc2c(OCCCBr)c3c(c(-c4ccc5c(c4)OCO5)c2cc1OC)C(=O)OC3` showed a pIC50 of 3.79.
With `COc1cc2c(O)c3c(c(-c4ccc5c(c4)OCO5)c2cc1OC)C(=O)OC3` [DIPHYLLIN] the pIC50 was < 3.30.
In the case of `CCCCCOc1c2c(c(-c3ccc4c(c3)OCO4)c3cc(OC)c(OC)cc13)C(=O)OC2`, the pIC50 was 3.54.
In the case of `CCOc1c2c(c(-c3ccc4c(c3)OCO4)c3cc(OC)c(OC)cc13)C(=O)OC2`, the pIC50 was 3.85.
